According to ChEMBL document CHEMBL5230151, “A review of synthetic bioactive tetrahydro-β-carbolines: A medicinal chemistry perspective” (Eur J Med Chem, 2021):
Converted amounts (≈) assume the structure as drawn. Values belong to the compound of their own block, whether it stands above or below them.

Assays:
[1] = molecular target: Histone deacetylase 1 (Homo sapiens, UniProt Q13547); experiment: Inhibition of human HDAC1
[2] = molecular target: T1, cGMP-specific 3',5'-cyclic phosphodiesterase (Homo sapiens, UniProt O76074); experiment: Inhibition of human PDE5A using fluorescence-labelled substrate
[3] = molecular target: T2, Protein deacetylase HDAC6 (Homo sapiens, UniProt Q9UBN7); experiment: Inhibition of human HDAC6
T2 sequence (Q9UBN7 whole entry): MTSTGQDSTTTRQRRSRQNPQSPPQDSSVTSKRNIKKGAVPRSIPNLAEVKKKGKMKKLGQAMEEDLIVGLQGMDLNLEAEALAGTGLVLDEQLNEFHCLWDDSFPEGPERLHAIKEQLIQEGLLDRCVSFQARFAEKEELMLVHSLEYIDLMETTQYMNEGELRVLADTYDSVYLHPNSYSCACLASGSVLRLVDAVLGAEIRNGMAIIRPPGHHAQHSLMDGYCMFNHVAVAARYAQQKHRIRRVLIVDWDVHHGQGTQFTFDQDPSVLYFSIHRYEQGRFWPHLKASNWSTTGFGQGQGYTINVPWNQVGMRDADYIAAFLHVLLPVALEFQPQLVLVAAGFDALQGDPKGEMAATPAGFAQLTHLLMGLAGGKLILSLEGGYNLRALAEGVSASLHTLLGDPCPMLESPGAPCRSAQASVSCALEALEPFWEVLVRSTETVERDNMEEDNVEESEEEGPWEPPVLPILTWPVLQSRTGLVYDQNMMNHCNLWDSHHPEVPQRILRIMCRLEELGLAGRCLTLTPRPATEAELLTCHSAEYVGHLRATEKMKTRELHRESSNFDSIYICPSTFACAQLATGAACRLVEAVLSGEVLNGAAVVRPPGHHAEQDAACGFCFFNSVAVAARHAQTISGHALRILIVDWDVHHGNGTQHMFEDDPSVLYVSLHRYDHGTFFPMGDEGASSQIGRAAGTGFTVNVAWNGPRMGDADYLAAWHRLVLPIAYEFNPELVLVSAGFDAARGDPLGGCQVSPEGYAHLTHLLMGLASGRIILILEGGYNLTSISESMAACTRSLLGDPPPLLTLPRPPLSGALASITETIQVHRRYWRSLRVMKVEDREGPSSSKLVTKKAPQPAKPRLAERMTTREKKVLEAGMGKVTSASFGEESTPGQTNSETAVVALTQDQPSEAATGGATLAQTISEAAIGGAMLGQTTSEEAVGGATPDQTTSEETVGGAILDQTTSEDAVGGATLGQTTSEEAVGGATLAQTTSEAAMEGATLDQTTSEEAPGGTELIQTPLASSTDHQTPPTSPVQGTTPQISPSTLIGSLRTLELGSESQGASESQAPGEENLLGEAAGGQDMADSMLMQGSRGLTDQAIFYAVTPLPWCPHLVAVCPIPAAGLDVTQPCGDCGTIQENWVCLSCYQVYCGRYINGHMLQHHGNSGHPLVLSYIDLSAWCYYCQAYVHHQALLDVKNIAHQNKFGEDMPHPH

[4] = molecular target: T3, Kinesin-like protein KIF11 (Homo sapiens, UniProt P52732); experiment: Inhibition of Eg5 ATPase activity (unknown origin)
T3 sequence (P52732 whole entry): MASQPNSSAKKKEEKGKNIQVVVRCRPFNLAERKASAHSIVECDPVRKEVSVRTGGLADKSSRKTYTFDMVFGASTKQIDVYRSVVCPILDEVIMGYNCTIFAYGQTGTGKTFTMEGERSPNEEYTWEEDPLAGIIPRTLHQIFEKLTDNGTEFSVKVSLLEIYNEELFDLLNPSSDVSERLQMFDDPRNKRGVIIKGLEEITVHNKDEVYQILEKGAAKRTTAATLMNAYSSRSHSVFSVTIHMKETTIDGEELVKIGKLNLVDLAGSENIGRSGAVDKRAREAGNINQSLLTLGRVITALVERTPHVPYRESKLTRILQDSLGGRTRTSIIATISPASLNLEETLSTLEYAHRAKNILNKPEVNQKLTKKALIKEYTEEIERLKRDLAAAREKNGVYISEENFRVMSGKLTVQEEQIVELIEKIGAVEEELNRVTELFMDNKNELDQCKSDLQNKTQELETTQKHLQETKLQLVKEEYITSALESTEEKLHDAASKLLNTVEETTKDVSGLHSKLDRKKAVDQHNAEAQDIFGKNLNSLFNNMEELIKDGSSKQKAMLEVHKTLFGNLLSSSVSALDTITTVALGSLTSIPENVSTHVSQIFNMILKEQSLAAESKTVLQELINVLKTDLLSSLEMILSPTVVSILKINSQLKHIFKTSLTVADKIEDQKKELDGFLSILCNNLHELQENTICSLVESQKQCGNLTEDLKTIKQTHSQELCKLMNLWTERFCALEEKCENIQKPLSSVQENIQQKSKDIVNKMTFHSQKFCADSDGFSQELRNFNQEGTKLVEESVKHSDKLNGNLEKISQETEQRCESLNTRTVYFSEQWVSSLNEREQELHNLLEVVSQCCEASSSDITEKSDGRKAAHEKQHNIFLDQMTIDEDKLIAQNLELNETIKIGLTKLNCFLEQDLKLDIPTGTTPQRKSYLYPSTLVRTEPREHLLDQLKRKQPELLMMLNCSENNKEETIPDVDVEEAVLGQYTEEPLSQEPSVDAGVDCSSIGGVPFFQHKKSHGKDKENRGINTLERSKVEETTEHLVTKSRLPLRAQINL

[5] = tested on: Gaeumannomyces graminis; experiment: Antifungal activity against Gaeumannomyces graminis at 10 mg/ml relative to control; format: functional
[6] = molecular target: T1, cGMP-specific 3',5'-cyclic phosphodiesterase; experiment: Inhibition of human PDE5
[7] = tested on: Tobacco mosaic virus; experiment: In vivo antiviral activity against tobacco mosaic virus assessed as curative activity at 500 ug/ml relative to control; format: functional; conditions: dose 500 µg/ml
[8] = tested on: Tobacco mosaic virus; experiment: In vivo antiviral activity against tobacco mosaic virus assessed as virus inactivation at 500 ug/ml relative to control; format: functional; conditions: dose 500 µg/ml
[9] = tested on: Tobacco mosaic virus; experiment: In vivo antiviral activity against tobacco mosaic virus assessed as protection activity at 500 ug/ml relative to control; format: functional; conditions: dose 500 µg/ml
[10] = molecular target: T4, Acetylcholinesterase (Electrophorus electricus, UniProt O42275); experiment: Inhibition of electric eel AChE using acetylthiocholine iodide as substrate measured after 20 mins by Ellmans method
[11] = Inhibition of equine serum BuChE using S-butylthiocholine iodide as substrate measured after 20 mins by Ellmans method; design: species or system […]
[12] = Inhibition of equine serum BuChE using butyrylthiocholine chloride as substrate
[13] = molecular target: T4, Acetylcholinesterase; experiment: Inhibition of electric eel AChE using acetylthiocholine iodide as substrate
[14] = tested on: Gaeumannomyces graminis; experiment: Antifungal activity against Gaeumannomyces graminis; format: functional, organism-based
[15] = molecular target: Amyloid-beta precursor protein (Homo sapiens) (UniProt P05067); experiment: Inhibition of self-induced amyloid beta (1 to 42 ) (unknown origin) aggregation at 20 uM measured after 24 hrs by thioflavin-T fluorescence method relative to control
[16] = molecular target: T1, cGMP-specific 3',5'-cyclic phosphodiesterase; experiment: Inhibition of PDE5 (unknown origin)
[17] = tested on: Plasmodium berghei; experiment: Antiplasmodial activity against Plasmodium berghei assessed as inhibition of schizont maturation at 5 ug/ml relative to control; format: functional
[18] = Inhibition of Plasmodium falciparum IspD

T4 sequence (O42275 whole entry): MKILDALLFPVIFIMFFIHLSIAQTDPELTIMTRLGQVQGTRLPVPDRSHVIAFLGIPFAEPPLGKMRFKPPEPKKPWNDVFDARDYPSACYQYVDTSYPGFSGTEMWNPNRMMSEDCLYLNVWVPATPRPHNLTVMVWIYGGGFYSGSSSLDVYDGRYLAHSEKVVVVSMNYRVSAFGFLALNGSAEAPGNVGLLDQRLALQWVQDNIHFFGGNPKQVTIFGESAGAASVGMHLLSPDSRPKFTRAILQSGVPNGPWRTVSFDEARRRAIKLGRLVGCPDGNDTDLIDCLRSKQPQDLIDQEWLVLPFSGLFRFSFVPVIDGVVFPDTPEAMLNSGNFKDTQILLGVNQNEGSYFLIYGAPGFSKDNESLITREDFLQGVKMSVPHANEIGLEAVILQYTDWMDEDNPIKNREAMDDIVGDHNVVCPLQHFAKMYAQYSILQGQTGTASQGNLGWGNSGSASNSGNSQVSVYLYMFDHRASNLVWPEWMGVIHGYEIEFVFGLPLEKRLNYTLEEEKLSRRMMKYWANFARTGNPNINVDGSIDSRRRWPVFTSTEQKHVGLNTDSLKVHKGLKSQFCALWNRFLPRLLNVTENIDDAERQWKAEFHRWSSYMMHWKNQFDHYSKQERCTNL
Sequence of Amyloid-beta precursor protein (Homo sapiens) (P05067 whole entry): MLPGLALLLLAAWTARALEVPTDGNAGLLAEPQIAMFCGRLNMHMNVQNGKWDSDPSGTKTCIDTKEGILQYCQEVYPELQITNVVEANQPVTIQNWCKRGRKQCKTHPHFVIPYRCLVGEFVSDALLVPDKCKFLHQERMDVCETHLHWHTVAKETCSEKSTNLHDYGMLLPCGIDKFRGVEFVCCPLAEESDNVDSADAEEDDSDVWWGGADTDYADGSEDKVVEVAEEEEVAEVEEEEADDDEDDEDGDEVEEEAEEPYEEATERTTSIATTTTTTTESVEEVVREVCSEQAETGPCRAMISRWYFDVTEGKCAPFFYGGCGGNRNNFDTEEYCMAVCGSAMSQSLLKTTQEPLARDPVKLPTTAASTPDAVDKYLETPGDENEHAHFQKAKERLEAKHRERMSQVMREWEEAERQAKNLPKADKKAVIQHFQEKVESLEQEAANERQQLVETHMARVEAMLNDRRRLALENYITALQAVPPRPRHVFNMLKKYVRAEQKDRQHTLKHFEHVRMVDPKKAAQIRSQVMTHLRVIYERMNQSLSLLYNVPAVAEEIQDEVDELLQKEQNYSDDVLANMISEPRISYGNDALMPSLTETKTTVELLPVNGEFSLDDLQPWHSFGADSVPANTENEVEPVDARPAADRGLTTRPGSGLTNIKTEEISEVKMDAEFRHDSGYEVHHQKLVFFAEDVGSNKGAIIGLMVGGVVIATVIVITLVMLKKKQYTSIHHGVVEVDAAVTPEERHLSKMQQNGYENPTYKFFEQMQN
Sequence of Histone deacetylase 1 (Q13547 whole entry): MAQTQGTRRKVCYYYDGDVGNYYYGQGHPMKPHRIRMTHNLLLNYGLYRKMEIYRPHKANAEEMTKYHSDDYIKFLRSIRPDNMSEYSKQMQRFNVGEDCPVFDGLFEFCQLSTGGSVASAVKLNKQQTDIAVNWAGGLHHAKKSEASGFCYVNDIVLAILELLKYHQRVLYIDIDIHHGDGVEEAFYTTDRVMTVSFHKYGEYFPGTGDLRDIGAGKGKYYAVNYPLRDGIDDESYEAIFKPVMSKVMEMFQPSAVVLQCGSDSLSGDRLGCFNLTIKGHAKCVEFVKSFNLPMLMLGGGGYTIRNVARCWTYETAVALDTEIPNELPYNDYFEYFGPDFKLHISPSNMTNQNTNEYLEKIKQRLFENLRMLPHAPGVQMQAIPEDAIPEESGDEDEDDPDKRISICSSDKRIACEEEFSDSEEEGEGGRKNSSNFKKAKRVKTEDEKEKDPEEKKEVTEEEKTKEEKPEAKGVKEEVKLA

IC50 [1]: 197 nM
IC50 [2]: 653 nM
IC50 [3]: 239 nM
SMILES: O=C(Cc1cnc(N2CCC(CN3CC(=O)N4[C@H](c5ccc6c(c5)OCO6)c5[nH]c6ccccc6c5C[C@@H]4C3=O)CC2)nc1)NO

IC50 [4]: 4300 nM
SMILES: CCCCN1C(=O)[C@@H]2Cc3c([nH]c4ccccc34)[C@@H](c3cccc(O)c3)N2C1=O

SMILES: C[C@@H]1N[C@H](C(=O)Nc2ccccc2C2=N[C@@H](C)CO2)Cc2c1[nH]c1ccccc21
inhibition at 10000 µg/mL [5]: 65.8%

SMILES: COC(=O)c1cc2c(cn1)[nH]c1ccccc12 [BETA-CCM]
IC50 [6]: 800 nM

SMILES: CC1N[C@H](C(=O)N/N=C/c2ccc(Cl)cc2)Cc2c1[nH]c1ccccc21 (stereo partly drawn)
Activity [7]: 63.2%
Activity [8]: 66.9%
Activity [9]: 68.1%

SMILES: c1ccc2c(NCCCCCCCN3CCc4c([nH]c5ccccc45)C3)c3c(nc2c1)CCCC3
IC50 [10]: 17.4 nM
IC50 [11]: 3.16 nM

SMILES: CC1c2[nH]c3ccccc3c2CCN1C(=O)/C=C/c1ccc(O)c(O)c1 (stereo not drawn)
IC50 [12]: 1320 nM
IC50 [13]: 21300 nM

EC50 [14]: 3.53 µg/mL (≈ 9.09 µM)
SMILES: C[C@@H]1COC(c2ccccc2NC(=O)[C@@H]2Cc3c([nH]c4ccccc34)[C@H](C)N2)=N1
inhibition at 10000 µg/mL [5]: 72.2%

IC50 [3]: 0.7 nM
SMILES: CN1C(=O)C2CN(Cc3c2c2ccccc2n3Cc2ccc(C(=O)NO)cc2)C1=O (stereo not drawn)

SMILES: CCCCOC(=O)[C@H]1Cc2c([nH]c3ccccc23)[C@H](C)N1
Activity [7]: 42.2%
Activity [8]: 51.3%
Activity [9]: 43.2%

SMILES: COc1ccc2[nH]c3c(c2c1)CCN(C(=O)/C=C/c1ccc(O)c(O)c1)C3C (stereo not drawn)
inhibition [15]: 65%
IC50 [12]: 6470 nM
IC50 [13]: 75300 nM

SMILES: O=C(CCCCN1CCc2c([nH]c3ccccc23)C1)Oc1ccc(/C=C2/CCc3nc4ccccc4c(=O)n32)cc1
IC50 [10]: 1.08 nM

SMILES: CNCC(=O)N[C@@H](CO)C(=O)N[C@H]1[C@H](O)[C@@H](O)[C@H](n2ccc(N)nc2=O)O[C@@H]1C(N)=O [NINGNANMYCIN]
Activity [7]: 54.2%
Activity [8]: 57.3%
Activity [9]: 55%

SMILES: C[C@@H]1N[C@@H](C(=O)NN)Cc2c1[nH]c1ccccc21
Activity [7]: 57.2%
Activity [8]: 64.2%
Activity [9]: 59.5%

IC50 [16]: 35 nM
SMILES: COc1cccc2c1C(=O)N1CCc3c([nH]c4cccc(OC)c34)[C@@H]1C2C (stereo partly drawn)

SMILES: CC1N[C@@H](C(=O)N/N=C/c2ccc(Cl)cc2)Cc2c1[nH]c1ccccc21 (stereo partly drawn)
Activity [7]: 71.5%
Activity [8]: 70.4%
Activity [9]: 64.2%

SMILES: COC(=O)[C@@H]1Cc2c([nH]c3ccccc23)[C@@H](c2ccc3c(c2)OCO3)N1
inhibition at 5 µg/mL [17]: 71.8%

IC50 [18]: 210 nM
SMILES: O=C(O)[C@@H]1Cc2c([nH]c3ccccc23)[C@@H](c2ccc(Cl)cc2Cl)N1

SMILES: COC(=O)[C@@H]1Cc2c([nH]c3ccccc23)[C@@H](c2cccnc2)N1
inhibition at 5 µg/mL [17]: 86.2%

IC50 [2]: 46 nM
SMILES: O=C(CCCCCCN1CC(=O)N2[C@H](c3ccc(Br)cc3)c3[nH]c4ccccc4c3C[C@@H]2C1=O)NO

SMILES: CC1N[C@@H](C(=O)N/N=C/C2CCCCC2)Cc2c1[nH]c1ccccc21 (stereo partly drawn)
Activity [7]: 62.8%
Activity [8]: 75.8%
Activity [9]: 69.2%

SMILES: CCOC(=O)[C@H]1Cc2c([nH]c3ccccc23)[C@H](C)N1
Activity [7]: 43.9%
Activity [8]: 50.4%
Activity [9]: 47.9%
